# Laboratory results reported in PubChem BioAssay AID1845208 (Molecular Pharmacology Branch, DTP, NCI, 2023).
# Test system: NCI-H196 SCLC complex tumor spheroid viability
# Test: Anticancer human tumor NCI-H196 cell line growth inhibition;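 note: spheroids exposed to compounds for 7 days before readout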;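 for viability, T/C: 100% = DMSO vehicle control wells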
# Conditions: for IC50: curve of first compound; for viability, T/C: stronger effect = lower value
# Method in brief: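 Single agents and combinations were tested on spheroids built from tumor cells plus HUVEC and hMSC, at half-log dilutions starting at or near clinical Cmax, else 10 microM; final DMSO 0.25% (v/v).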
smiles,measurement,setting,value
CNCc1ccc(-c2cc(-c3nc(-c4ccc(S(=O)(=O)C(C)C)cc4)cnc3N)on2)cc1 + Cn1nnc2c(C(N)=O)ncn2c1=O,IC50,second compound 1 µM,> 3 µM
same,IC50,second compound 3.16 µM,> 3 µM
same,IC50,second compound 10 µM,> 3 µM
same,IC50,second compound 31.6 µM,> 3 µM
same,IC50,second compound 100 µM,> 3 µM
same,"viability, T/C","second compound 1 µM, first compound 0.00949 µM",100%
same,"viability, T/C","second compound 1 µM, first compound 0.03 µM",92.1%
same,"viability, T/C","second compound 1 µM, first compound 0.0949 µM",106%
same,"viability, T/C","second compound 1 µM, first compound 0.3 µM",99.5%
same,"viability, T/C","second compound 1 µM, first compound 0.949 µM",84.1%
same,"viability, T/C","second compound 1 µM, first compound 3 µM",85.2%
same,"viability, T/C","second compound 3.16 µM, first compound 0.00949 µM",98.7%
same,"viability, T/C","second compound 3.16 µM, first compound 0.03 µM",97.4%
same,"viability, T/C","second compound 3.16 µM, first compound 0.0949 µM",104%
same,"viability, T/C","second compound 3.16 µM, first compound 0.3 µM",105%
same,"viability, T/C","second compound 3.16 µM, first compound 0.949 µM",88.1%
same,"viability, T/C","second compound 3.16 µM, first compound 3 µM",88.2%
same,"viability, T/C","second compound 10 µM, first compound 0.00949 µM",100%
same,"viability, T/C","second compound 10 µM, first compound 0.03 µM",96.3%
same,"viability, T/C","second compound 10 µM, first compound 0.0949 µM",105%
same,"viability, T/C","second compound 10 µM, first compound 0.3 µM",99.5%
same,"viability, T/C","second compound 10 µM, first compound 0.949 µM",95.3%
same,"viability, T/C","second compound 10 µM, first compound 3 µM",84.4%
same,"viability, T/C","second compound 31.6 µM, first compound 0.00949 µM",102%
same,"viability, T/C","second compound 31.6 µM, first compound 0.03 µM",113%
same,"viability, T/C","second compound 31.6 µM, first compound 0.0949 µM",106%
same,"viability, T/C","second compound 31.6 µM, first compound 0.3 µM",105%
same,"viability, T/C","second compound 31.6 µM, first compound 0.949 µM",91.4%
same,"viability, T/C","second compound 31.6 µM, first compound 3 µM",82.9%
same,"viability, T/C","second compound 100 µM, first compound 0.00949 µM",107%
same,"viability, T/C","second compound 100 µM, first compound 0.03 µM",109%
same,"viability, T/C","second compound 100 µM, first compound 0.0949 µM",112%
same,"viability, T/C","second compound 100 µM, first compound 0.3 µM",99.6%
same,"viability, T/C","second compound 100 µM, first compound 0.949 µM",88.3%
same,"viability, T/C","second compound 100 µM, first compound 3 µM",84.3%
COc1cc(C)[nH]c(=O)c1CN1CCc2c(Cl)cc(C(OC)C3COC3)c(Cl)c2C1=O (stereo not given) + COc1cc2c(cc1O)CCNC21CSC2c3c(OC(C)=O)c(C)c4c(c3C(COC1=O)N1C(O)C3Cc5cc(C)c(OC)c(O)c5C(C21)N3C)OCO4,IC50,second compound 30 pM,> 10 µM
same,IC50,second compound 94.9 pM,> 10 µM
same,IC50,second compound 0.0003 µM,> 10 µM
same,IC50,second compound 0.000949 µM,> 10 µM
same,IC50,second compound 0.003 µM,< 0.0316 µM
same,"viability, T/C","second compound 30 pM, first compound 0.0316 µM",104%
same,"viability, T/C","second compound 30 pM, first compound 0.1 µM",101%
same,"viability, T/C","second compound 30 pM, first compound 0.316 µM",95.8%
same,"viability, T/C","second compound 30 pM, first compound 1 µM",101%
same,"viability, T/C","second compound 30 pM, first compound 3.16 µM",97.8%
same,"viability, T/C","second compound 30 pM, first compound 10 µM",98.4%
same,"viability, T/C","second compound 94.9 pM, first compound 0.0316 µM",107%
same,"viability, T/C","second compound 94.9 pM, first compound 0.1 µM",96.5%
same,"viability, T/C","second compound 94.9 pM, first compound 0.316 µM",103%
same,"viability, T/C","second compound 94.9 pM, first compound 1 µM",95.4%
same,"viability, T/C","second compound 94.9 pM, first compound 3.16 µM",99.1%
same,"viability, T/C","second compound 94.9 pM, first compound 10 µM",104%
same,"viability, T/C","second compound 0.0003 µM, first compound 0.0316 µM",100%
same,"viability, T/C","second compound 0.0003 µM, first compound 0.1 µM",105%
same,"viability, T/C","second compound 0.0003 µM, first compound 0.316 µM",98.8%
same,"viability, T/C","second compound 0.0003 µM, first compound 1 µM",97.1%
same,"viability, T/C","second compound 0.0003 µM, first compound 3.16 µM",94.6%
same,"viability, T/C","second compound 0.0003 µM, first compound 10 µM",97.8%
same,"viability, T/C","second compound 0.000949 µM, first compound 0.0316 µM",83.7%
same,"viability, T/C","second compound 0.000949 µM, first compound 0.1 µM",80.3%
same,"viability, T/C","second compound 0.000949 µM, first compound 0.316 µM",83%
same,"viability, T/C","second compound 0.000949 µM, first compound 1 µM",80.9%
same,"viability, T/C","second compound 0.000949 µM, first compound 3.16 µM",87%
same,"viability, T/C","second compound 0.000949 µM, first compound 10 µM",77.9%
same,"viability, T/C","second compound 0.003 µM, first compound 0.0316 µM",18.9%
same,"viability, T/C","second compound 0.003 µM, first compound 0.1 µM",5.38%
same,"viability, T/C","second compound 0.003 µM, first compound 0.316 µM",7.56%
same,"viability, T/C","second compound 0.003 µM, first compound 1 µM",12.5%
same,"viability, T/C","second compound 0.003 µM, first compound 3.16 µM",5.22%
same,"viability, T/C","second compound 0.003 µM, first compound 10 µM",2.69%
